The text below walks through data of patent US5220018A, “Cholecystokinin antagonists” (Merck & Co., Inc., priority 1992, dated 1993).

Like-named read-outs stand apart in the source and are kept apart here. A value given as a limit tells only on which side of the number the result lay.

Test [1] deals with T1, CCK Receptor (Pancreas) (Rattus norvegicus, UniProt P30551).
T1 construct: The whole pancreas was dissected free of fat tissue and was homogenized; from tissue; host or cells: rat whole pancreas, homogenate membranes
T1 sequence (P30551 1-444): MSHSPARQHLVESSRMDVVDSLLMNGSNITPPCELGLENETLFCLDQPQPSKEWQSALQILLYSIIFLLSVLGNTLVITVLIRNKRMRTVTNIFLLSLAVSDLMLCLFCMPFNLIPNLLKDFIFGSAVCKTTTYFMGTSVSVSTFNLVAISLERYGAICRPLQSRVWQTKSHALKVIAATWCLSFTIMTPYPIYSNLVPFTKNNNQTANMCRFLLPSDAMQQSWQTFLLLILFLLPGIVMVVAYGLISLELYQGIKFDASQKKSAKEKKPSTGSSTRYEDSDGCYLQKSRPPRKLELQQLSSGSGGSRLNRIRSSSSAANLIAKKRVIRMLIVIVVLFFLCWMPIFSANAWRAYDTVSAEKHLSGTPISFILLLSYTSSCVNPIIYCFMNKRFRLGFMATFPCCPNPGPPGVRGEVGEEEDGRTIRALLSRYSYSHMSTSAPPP
Description: biochemical. The format is binding, Male Sprague-Dawley rats. Here is the method:
1. CCK Receptor Binding (Pancreas)
CCK-8 sulphated was radiolabelled with ^125 I-Bolton Hunter reagent (2000 Ci/mmole). Receptor binding was performed according to Chang and Lotti (Proc. Natl. Acad. Sci. 83, 4923-4926, 1986) with minor modifications.
Male Sprague-Dawley rats (150-200 g) were sacrificed by decapitation. The whole pancreas was dissected free of fat tissue and was homogenized in 25 volumes of ice-cold 10 mM Hepes buffer with 0.1% soya bean trypsin inhibitor (pH 7.4 at 25° C.) with a Kinematica Polytron. The homogenates were centrifuged at 47,800 g for 10 min. Pellets were resuspended in 10 volumes of binding assay buffer (20 mM Hepes, 1 mM EGTA, 5 mM MgCl2, 150 mM NaCl, bacitracin 0.25 mg/ml, soya bean trypsin inhibitor 0.1 mg/ml, and bovine serum albumin 2 mg/ml, pH 6.5 at 25° C.) using a teflon homogenizer, 15 strokes at 500 rpm. The homogenate was further diluted in binding assay buffer to give a final concentration of 0.5 mg original wet weight/1 ml buffer. […] All assays were run in duplicate. The reaction mixtures were incubated at 25° C. for 2 hours and the reaction terminated by rapid filtration (Brandell 24 well cell harvester) over Whatman GF/C filters, washing 3×4 mls with ice-cold 100 mM NaCl. The radioactivity on the filters was counted with a LKB gamma counter.
(§1) Drug displacement studies were performed with at least 10 concentrations of compounds of formula 1 and the IC50 values were determined by regression analysis.

Test [2] deals with T2, CCK Receptor (Brain) (Cavia porcellus, UniProt H0VZC5).
T2 construct: the cortex was removed and homogenized in 25 mL ice-cold 0.32M sucrose; from tissue; host or cells: guinea pig cerebral cortex, P2 membrane pellet
T2 sequence (H0VZC5 1-426): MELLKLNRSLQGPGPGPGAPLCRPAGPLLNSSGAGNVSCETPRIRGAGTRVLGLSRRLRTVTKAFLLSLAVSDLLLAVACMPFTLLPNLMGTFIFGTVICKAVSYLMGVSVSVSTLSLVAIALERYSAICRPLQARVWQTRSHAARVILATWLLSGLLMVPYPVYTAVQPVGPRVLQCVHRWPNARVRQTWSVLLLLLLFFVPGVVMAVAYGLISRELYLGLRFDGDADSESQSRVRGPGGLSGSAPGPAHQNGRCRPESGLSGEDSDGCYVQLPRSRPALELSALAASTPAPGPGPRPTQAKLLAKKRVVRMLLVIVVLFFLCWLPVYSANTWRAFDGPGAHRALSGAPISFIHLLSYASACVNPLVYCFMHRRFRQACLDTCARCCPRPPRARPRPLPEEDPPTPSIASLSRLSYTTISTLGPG
Description: CCK Receptor Binding (Brain), inhibition of 125I-CCK-8 binding. Details: species or system Male Hartley guinea pigs. Here is the method: 2. CCK Receptor Binding (Brain)
CCK-8 sulphated was radiolabelled and the binding was performed according to the description for the pancreas method with minor modifications.
Male Hartley guinea pigs (300-500 g) were sacrificed by decapitation and the cortex was removed and homogenized in 25 mL ice-cold 0.32M sucrose. The homogenates were centrifuged at 1000 g for 10 minutes and the resulting supernatant was recentrifuged at 20,000 g for 20 minutes. […] All assays were run in duplicate. The reaction mixtures were incubated at 25° C. for 2 hours and then the reaction was terminated on Whatman GF/C filters by rapid filtration (Brandell 24 well cell Harvester) with 3×5 ml washes of cold 100 mM NaCl. The radioactivity on the filters was then counted with a LKB gamma counter.
as §1

The mark [3] stands for this setting: guinea pig cortex membranes, 125I-CCK-8 50 pM, 25° C., 2 hours, read-out: IC50, 125I-CCK Brain.
The mark [4] stands for this setting: rat pancreas membranes, 125I-CCK-8 50 pM, 25° C., 2 hours, read-out: IC50, 125I-CCK Pancreas.

Take `CN1C(=O)[C@H](NC(=O)Nc2cccc(C(=O)NS(C)(=O)=O)c2)N=C(c2ccccc2)c2ccccc21` [Example 23, N-{1,3-Dihydro-1-methyl-2-oxo-5-phenyl-1H-1,4-benzodiazepin-3-yl}-N'-{[3-(N-(methanesulfonyl)carboxamido)phenyl]urea}]: the IC50 (commonly the concentration at which inhibition is half-maximal) in test [1] was determined as 1500 nM; in test [2] (setting [3]), 12 nM.

Consider `CC(C)S(=O)(=O)NC(=O)c1cccc(NC(=O)N[C@@H]2N=C(c3ccccc3)c3ccccc3N(C)C2=O)c1` [Example 24, N-{1,3-Dihydro-1-methyl-2-oxo-5-phenyl-1H-1,4-benzodiazepin-3-yl}-N'-{[3-(N-(2-propylsulfonyl)carboxamido)phenyl]urea}], for which the IC50 was determined as 2400 nM in test [1] (setting [4]) and 7.6 nM in test [2] (setting [3]).

Consider `CN1C(=O)[C@H](NC(=O)Nc2cccc(C(=O)NS(=O)(=O)C(C)(C)C)c2)N=C(c2ccccc2)c2ccccc21` [Example 25, N-{1,3-Dihydro-1-methyl-2-oxo-5-phenyl-1H-1,4-benzodiazepin-3-yl}-N'-{[3-(N-(t-butylsulfonyl)carboxamido)phenyl]urea}], for which the IC50 in test [1] (setting [4]) was above 3000 nM; in test [2] (setting [3]), 0.38 nM.

As to `CC(C)NC(=O)NC(=O)c1cccc(NC(=O)N[C@@H]2N=C(c3ccccc3)c3ccccc3N(C)C2=O)c1` [Example 26, N-{1,3-Dihydro-1-methyl-2-oxo-5-phenyl-1H-1,4-benzodiazepin-3-yl}-N'-{[3-(N-(2-propylaminocarbonyl)carboxamido)phenyl]urea}], the IC50 in test [1] (setting [4]) is above 3000 nM; in test [2] (setting [3]), 410 nM.

Consider `CC(=O)NS(=O)(=O)c1cccc(NC(=O)N[C@@H]2N=C(c3ccccc3)c3ccccc3N(CC3CC3)C2=O)c1` [Example 27, N-{1,3-Dihydro-1-cyclopropylmethyl-2-oxo-5-phenyl-1H-1,4-benzodiazepin-3-yl}-N'-{[3-(N-(acetyl)sulfonamido)phenyl]urea}], for which the IC50 was found to be 4600 nM in test [1] (setting [4]) and 0.55 nM in test [2] (setting [3]).

Turning to `CN1C(=O)[C@H](NC(=O)Nc2cccc(S(=O)(=O)NC(=O)C(C)(C)C)c2)N=C(c2ccccc2)c2ccccc21` [Example 28, N-{1,3-Dihydro-1-methyl-2-oxo-5-phenyl-1H-1,4-benzodiazepin-3-yl}-N'-{[3-(N-(1,1-dimethylethylcarbonyl)sulfonamido)phenyl]urea}], the results for the IC50 in test [1] (setting [4]) and in test [2] (setting [3]) were above 3000 nM and 12 nM, respectively.

In the case of `CN1C(=O)[C@H](NC(=O)Nc2cccc(S(=O)(=O)NC(=O)C3CC3(C)C)c2)N=C(c2ccccc2)c2ccccc21` (stereo partly drawn) [Example 29, N-{1,3-Dihydro-1-methyl-2-oxo-5-phenyl-1H-1,4-benzodiazepin-3-yl}-N'-{[3-(N-(2,2-dimethylcyclopropylcarbonyl)sulfonamido)phenyl]urea}], the IC50 in test [1] (setting [4]) was above 3000 nM; in test [2] (setting [3]) it was 11 nM.

Turning to `CN1C(=O)[C@H](NC(=O)Nc2cccc(S(=O)(=O)NC(=O)NC(C)(C)C)c2)N=C(c2ccccc2)c2ccccc21` [Example 30, N-{1,3-Dihydro-1-methyl-2-oxo-5-phenyl-1H-1,4-benzodiazepin-3-yl}-N'-{[3-(N-(t-butylaminocarbonyl)sulfonamido)phenyl]urea}], the IC50 is above 3000 nM in test [1] (setting [4]) and 14 nM in test [2] (setting [3]).

In the case of `CN1C(=O)[C@H](NC(=O)Nc2cccc(S(=O)(=O)NP(=O)(Oc3ccccc3)Oc3ccccc3)c2)N=C(c2ccccc2)c2ccccc21` [Example 31, N-{1,3-Dihydro-1-methyl-2-oxo-5-phenyl-1H-1,4-benzodiazepin-3-yl}-N'-{[3-(N-(diphenylphosphono)sulfonamido)phenyl]urea}], the IC50 in test [1] is above 3000 nM; in test [2], 15 nM.

Consider `CN1C(=O)[C@H](NC(=O)Nc2cccc(/C=C/C(=O)O)c2)N=C(c2ccccc2)c2ccccc21` [Example 32, N-{1,3-Dihydro-1-methyl-2-oxo-5-phenyl-1H-1,4-benzodiazepin-3-yl}-N'-{[3-(trans-carboxyethylene)phenyl]urea}], for which the IC50 worked out at 12 nM in test [1] (setting [4]) and 8.9 nM in test [2] (setting [3]).

Turning to `CN1C(=O)[C@H](NC(=O)Nc2cccc(-c3nnn(C)n3)c2)N=C(c2ccccc2)c2ccccc21` [Example 33, N-{1,3-Dihydro-1-methyl-2-oxo-5-phenyl-1H-1,4-benzodiazepin-3-yl}-N'-{[3-(2-methyltetrazol-5-yl)phenyl]urea}], the 50% inhibitory concentration (IC50) in test [1] came to 1600 nM; in test [2] (setting [3]), 21 nM.

As to `CN1C(=O)[C@H](NC(=O)Nc2cccc(-c3noc(=O)[nH]3)c2)N=C(c2ccccc2)c2ccccc21` [Example 34, N-{1,3-Dihydro-1-methyl-2-oxo-5-phenyl-1H-1,4-benzodiazepin-3-yl}-N'-{[3-(1,2,4-oxadiazol-5-one)phenyl]urea}], the IC50 amounted to 1100 nM in test [1] (setting [4]) and 0.19 nM in test [2] (setting [3]).

For the compound `O=C(Nc1cccc(-c2noc(=O)[nH]2)c1)N[C@@H]1N=C(c2ccccc2)c2ccccc2N(CC2CC2)C1=O` [Example 35, N-{1,3-Dihydro-1-cyclopropylmethyl-2-oxo-5-phenyl-1H-1,4-benzodiazepin-3-yl}-N'-{[3-(1,2,4-oxadiazol-5-one)phenyl]urea}], the results for the IC50 in test [1] (setting [4]) and in test [2] (setting [3]) were 190 nM and 0.09 nM, respectively.

As for `CN1C(=O)[C@H](NC(=O)Nc2cccc(C3=NOS(=O)N3)c2)N=C(c2ccccc2)c2ccccc21` (stereo partly drawn) [Example 36, N-{1,3-Dihydro-1-methyl-2-oxo-5-phenyl-1H-1,4-benzodiazepin-3-yl}-N'-{[3-(1,2,4-oxadiathiazol-5-one)phenyl]urea}], the IC50 in test [1] (setting [4]) was 1520 nM; in test [2] (setting [3]), 19.6 nM.

`CN1C(=O)[C@H](NC(=O)Nc2cccc(-c3n[nH]c(=O)o3)c2)N=C(c2ccccc2)c2ccccc21` [Example 37]: the IC50 in test [1] (setting [4]) came to 2460 nM; in test [2] (setting [3]) it was 3.62 nM.
